Laboratory results taken from ChEMBL document CHEMBL1157191, “Syntheses and applications of fluorescent and biotinylated epolactaene derivatives: Epolactaene and its derivative induce disulfide formation” (Bioorg Med Chem, 2008).

Test system: BALL-1
Assay: cytotoxicity against human BALL1 cells by MTT assay
Assay type: functional, cell-based

## C\C=C(/C=C(C)/C=C/CC/C=C(\C)C(=O)[C@]12O[C@H]1C(C)(O)NC2=O)C(=O)OC (some centres undefined) [EPOLACTAENE]
  IC50: 3820 nM

## CCN(CC)c1ccc2cc(NC(=O)OCCCCCCCCCCCC(=O)[C@]34O[C@H]3C(C)(O)NC4=O)c(=O)oc2c1 (some centres undefined)
  IC50: 1560 nM

## CC1(O)NC(=O)[C@@]2(C(=O)CCCCCCCCCCCNC(=O)CCCC[C@@H]3SC[C@@H]4NC(=O)N[C@@H]43)O[C@@H]12 (some centres undefined)
  IC50: 48300 nM

## CCCCCCCCCCCC(=O)[C@]12O[C@H]1C(C)(O)NC2=O (some centres undefined)
  IC50: 1650 nM
